Data on 6 molecules can be found in ChEMBL document CHEMBL1150985, “Macrolide-type motilin receptor agonists: Acid-stable 12-O-methyl-8,9-anhydroerythromycin A 6,9-hemiacetals” (Bioorg Med Chem Lett, 1995).

One assay relates to Bacillus subtilis. The experiment in a line: Compound was tested for the minimum inhibitory concentration by agar dilution method against Bacillus subtilis ATCC 6633. The assay is classed as functional.
A further assay relates to Escherichia coli. The assay is described as follows: Tested for the minimum inhibitory concentration by agar dilution method against Escherichia coli NIHJ JC-2. The assay is classed as functional. A general note: In agar dilution the substance is mixed into plates at graded concentrations.
The next assay deals with Klebsiella pneumoniae. The experiment in a line: Tested for the minimum inhibitory concentration by agar dilution method against Klebsiella pneumoniae IFO 3512. The assay is classed as functional.
Assay [1] addresses T1, Motilin receptor (Homo sapiens, UniProt O43193). The assay is described as follows: Compound was tested for in vitro motilin receptor binding affinity.
The target in assay [2] is T1, Motilin receptor. The assay is described as follows: Compound was tested for in vitro motilin receptor binding affinity after treatment with hydrochloric acid solution (pH 2.5).
The species named for the next assay is Oryctolagus cuniculus. The assay is described as follows: Compound was tested for the in vitro smooth muscle contractile activity. The format is functional. Particulars: Muscle tissue.
The next assay relates to Staphylococcus aureus. The assay is described as follows: Tested for the minimum inhibitory concentration by agar dilution method against Staphylococcus aureus 209P. The assay is classed as functional.
A further assay relates to Streptococcus pneumoniae. The experiment in a line: Tested for the minimum inhibitory concentration by agar dilution method against Streptococcus pneumoniae No. 12. The assay is classed as functional.
In assay [3] the test system is Canis familiaris. The experiment in a line: Motor index (MI) was reported in vivo for smooth muscle contractile activity after i.v. administration of the compound. The format is functional, Canis lupus familiaris, Muscle tissue.
Assay [4] concerns Canis familiaris. The experiment in a line: Motor index (MI) was reported in vivo for smooth muscle contractile activity after i.g. administration of the compound. The assay is classed as functional, Canis lupus familiaris, Muscle tissue.

Values after ≈ are worked out from the molar mass of the structure shown. A value given as a limit tells only on which side of the number the result lay.

T1 sequence (O43193 whole entry): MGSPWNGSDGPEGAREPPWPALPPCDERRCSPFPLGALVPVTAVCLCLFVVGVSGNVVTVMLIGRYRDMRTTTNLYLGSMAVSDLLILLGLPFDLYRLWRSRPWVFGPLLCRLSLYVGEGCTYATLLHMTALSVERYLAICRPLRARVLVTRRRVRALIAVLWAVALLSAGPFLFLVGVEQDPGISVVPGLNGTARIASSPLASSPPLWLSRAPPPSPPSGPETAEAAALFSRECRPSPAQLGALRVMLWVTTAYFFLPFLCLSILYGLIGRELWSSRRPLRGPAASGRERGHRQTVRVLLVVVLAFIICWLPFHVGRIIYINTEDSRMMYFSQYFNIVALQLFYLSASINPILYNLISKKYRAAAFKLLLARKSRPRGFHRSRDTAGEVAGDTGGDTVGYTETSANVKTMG

In general, MIC refers to the lowest concentration that inhibits growth of the organism. The low end stands for inhibition by little substance, the high end for a need for much substance. As a reminder, the IC50 is the midpoint of a concentration-inhibition curve. A low value points to greater potency. For orientation: EC50 means the concentration at which the effect is half-maximal. A high value points to weaker potency. For the molecule `CCC1OC(=O)C(C)C(O[C@H]2C[C@@](C)(OC)[C@@H](O)C(C)O2)C(C)[C@@H](OC2OC(C)CC(N(C)C)[C@H]2O)[C@]2(C)CC(C)=C(O2)[C@H](C)[C@@H](O)[C@]1(C)OC` (stereo not given in full), the MIC was 6.3 µM (≈ 4.6 µg/mL) with Bacillus subtilis; > 200 µM in the assay on Escherichia coli; 200 µM (≈ 146 µg/mL) in the assay with Klebsiella pneumoniae; 25 µM (≈ 18.2 µg/mL) with Staphylococcus aureus; 1.6 µM (≈ 1.17 µg/mL) with Streptococcus pneumoniae. Also, the IC50 was 7.59 nM on Motilin receptor [1] and 39.8 nM on Motilin receptor [2]. Also, the EC50 in the assay listed under Oryctolagus cuniculus is 19.5 nM.
Regarding `CCC1OC(=O)C(C)C(O[C@H]2C[C@@](C)(OC)[C@@H](O)C(C)O2)C(C)[C@@H](OC2OC(C)CC(N(C)CC)[C@H]2O)[C@]2(C)CC(C)=C(O2)[C@H](C)[C@@H](O)[C@]1(C)OC` (stereo not given in full), the MIC in the assay with Bacillus subtilis is > 200 µM; with Escherichia coli, > 200 µM; in the assay on Klebsiella pneumoniae, > 200 µM; in the assay on Staphylococcus aureus, > 200 µM; in the assay with Streptococcus pneumoniae, 50 µM (≈ 37.2 µg/mL). Also, the IC50 at Motilin receptor [1] is 4.68 nM; on Motilin receptor [2], 8.32 nM. Also, a half-maximal effect in the assay filed under Oryctolagus cuniculus (EC50) was put at 22.9 nM.
Take `CCC1OC(=O)C(C)C(O[C@H]2C[C@@](C)(OC)[C@@H](O)C(C)O2)C(C)[C@@H](OC2OC(C)CC(N(C)C)[C@H]2O)[C@]2(C)CC(C)C3(O[C@]1(C)[C@H](O)[C@H]3C)O2` (stereo not given in full): the MI100 with Canis familiaris [3] is >70 µg/kg. Moreover, the figures for the half-inhibitory concentration (IC50) at Motilin receptor [1] and on Motilin receptor [2] were 155 nM and 170 nM, respectively. Also, in the assay filed under Oryctolagus cuniculus, the EC50 is > 10000 nM.
With `CCC1OC(=O)C(C)C(O[C@H]2C[C@@](C)(OC)[C@@H](O)C(C)O2)C(C)[C@@H](OC2OC(C)CC(N(C)C(C)C)[C@H]2O)[C@]2(C)CC(C)=C(O2)[C@H](C)[C@@H](O)[C@]1(C)OC` (stereo not given in full), the MIC in the assay on Bacillus subtilis is > 200 µM; in the assay with Escherichia coli, > 200 µM; against Klebsiella pneumoniae it was > 200 µM; with Staphylococcus aureus it was > 200 µM; with Streptococcus pneumoniae, 200 µM (≈ 152 µg/mL). Besides, the MI100 came to 1.2 µg/kg in the assay on Canis familiaris [4] and 0.44 µg/kg in the assay with Canis familiaris [3]. Besides, the IC50 is 6.92 nM on Motilin receptor [1] and 15.1 nM on Motilin receptor [2]. The EC50 in the assay listed under Oryctolagus cuniculus was 12.9 nM.
Turning to `CC[C@H]1OC(=O)[C@H](C)[C@@H](O[C@H]2C[C@@](C)(OC)[C@@H](O)[C@H](C)O2)[C@H](C)[C@@H](OC2O[C@H](C)C[C@H](N(C)C)[C@H]2O)C2(C)CC(C)=C(O2)[C@H](C)[C@@H](O)[C@]1(C)O` (single isomer, unassigned), in the assay on Canis familiaris [3], the MI100 was 1 µg/kg. Further, the IC50 on Motilin receptor [1] was 3.39 nM; on Motilin receptor [2], 224 nM.
Take `CC[C@H]1OC(=O)[C@H](C)[C@@H](O[C@H]2C[C@@](C)(OC)[C@@H](O)[C@H](C)O2)[C@H](C)[C@@H](OC2O[C@H](C)C[C@H](N(C)C)[C@H]2O)C(C)(O)C[C@@H](C)C(=O)[C@H](C)[C@@H](O)[C@]1(C)O` (single isomer, unassigned) [ERYTHROMYCIN]: the MIC in the assay on Bacillus subtilis worked out at 0.39 µM (≈ 0.286 µg/mL); against Escherichia coli, 100 µM (≈ 73.4 µg/mL); against Klebsiella pneumoniae, 6.3 µM (≈ 4.62 µg/mL); against Staphylococcus aureus it was 0.39 µM (≈ 0.286 µg/mL); against Streptococcus pneumoniae, 0.1 µM (≈ 0.0734 µg/mL). The MI100 with Canis familiaris [3] was determined as 32.3 µg/kg. The molecule further showed an EC50 in the assay filed under Oryctolagus cuniculus of 316 nM.
